Experimental data reported in paper PMC12298629, “New Derivatives of Caracasine Acid with Anti-Leukemic Activity and Limited Effectiveness in Spheroid Cultures” (Pharmaceuticals, 2025).

How the values were obtained:
BJ = assay: Cytotoxic MTS assay, BJ fibroblasts; type: cell-based; details: human fibroblasts, 72 h, median of five assays
Excerpt: (§1) The cancer cell lines used in the cytotoxic assays were acquired from the American Tissue Culture Collection (ATCC) (Manassas, VA, USA) and maintained as described previously. The MRC-5 and BJ human fibroblasts were used as non-tumoral control cells. The (MRC-5 LD and BJ LD) are also human fibroblast cell lines resistant to doxorubicin. […] The Raji and Ramos cell lines correspond to B-cell leukemia. Other cells, such as U2OS, represent a child osteosarcoma, while HCT116 is a colorectal tumor cell line. (HCT116p53^−/−, Horizon Discovery Ltd., Cambridge, UK) is a similar cell line with its p53 gene knocked down, serving as a model of human cancer frequently associated with a poor prognosis. The cells were maintained in Nunc/corning 80 cm^2 plastic tissue culture flasks and cultured in a cell culture medium according to ATCC or Horizon recommendations (McCoy, DMEM/RPMI 1640 with 5 g/L glucose, 2 mM glutamine, 100 U/mL penicillin, […] streptomycin, 10% fetal calf serum, and NaHCO3). The compounds were freshly dissolved in DMSO. The final concentration of DMSO was 0.01% in the cell culture.
(§2) The in vitro cytotoxicity of compounds (1–7) was assessed using the standard 3-(4,5-dimethyl-thiazol-2yl)-5-(3-carboxymethoxyphenyl)-2-(sulfophenyl)-2H-tetrazolium (MTS). The assay was performed at the Institute of Molecular and Translational Medicine using a robotic platform (High-ResBiosolutions, Beverly, MA, USA). Cell suspensions were prepared and diluted according to the specific cell type and the expected target cell density (25,000–35,000 cells/mL, based on cell growth characteristics). An automatic pipettor (30 μL) was used to add cells into 384-well microtiter plates. All tested compounds were dissolved in 100% DMSO, and four-fold dilutions of the intended test concentrations were added in 0.15 μL aliquots at time zero to the microtiter plate wells by the echo acoustic non-contact liquid handler Echo550 (Labcyte, San Jose, CA, USA). The assays were accomplished in technical duplicates and at least three biological replicates. The cells were incubated with the tested compound for 72 h at 37 °C in a 5% CO2 atmosphere with 100% humidity. At the end of the incubation period, cells were assayed using the MTS test. Aliquots (5 μL) of the MTS stock solution were pipetted into each well and incubated for 1–4 h. After this incubation period, the optical density (OD) was measured at 490 nm using an Envision reader (PerkinElmer, Waltham, MA, USA). Tumor cell survival (TCS) was calculated using the following equation: TCS = (OD drug-exposed well/mean OD control wells) × 100%. The IC50 value, representing the concentration of the compound lethal to 50% of the tumor cells, was calculated from the corresponding dose-response curves using Dotmatics software (Updated version 2022, London, UK). After three days of incubation on the cancer cell lines and normal fibroblasts, the […] (IC50) were obtained. Five assays were performed for each cell line. The standard error of the assays was lower than 10%, as assessed by the triplicate assays.

BJ LD = assay: Cytotoxic MTS assay, BJ LD fibroblasts (doxorubicin-resistant); type: cell-based; details: doxorubicin-resistant human fibroblasts, 72 h, median of five assays
Excerpt: as §1, §2

MRC-5 = assay: Cytotoxic MTS assay, MRC-5 fibroblasts; type: cell-based; details: 72 h, median of five assays
Excerpt: as §1, §2

MRC-5 LD = assay: Cytotoxic MTS assay, MRC-5 LD fibroblasts (doxorubicin-resistant); type: cell-based; details: 72 h, median of five assays
Excerpt: as §1, §2

CCRF-CEM = assay: Cytotoxic MTS assay, CCRF-CEM; type: cell-based; details: human leukemia cell line, 72 h, median of five assays
Excerpt: as §1, §2

K562 = assay: Cytotoxic MTS assay, K562; type: cell-based; details: 72 h, median of five assays
Excerpt: as §1, §2

RAJI = assay: Cytotoxic MTS assay, Raji; type: cell-based; details: human leukemia cell line, 72 h, median of five assays
Excerpt: as §1, §2

RAMOS = assay: Cytotoxic MTS assay, Ramos; type: cell-based; details: human leukemia cell line, 72 h, median of five assays
Excerpt: as §1, §2

HCT116 par = assay: Cytotoxic MTS assay, HCT116 parental 2D; type: cell-based; details: 72 h, median of five assays
Excerpt: as §1, §2

HCT116KO53 = assay: Cytotoxic MTS assay, HCT116 p53 knockout 2D; type: cell-based; details: 72 h, median of five assays
Excerpt: as §1, §2

A549 = assay: Cytotoxic MTS assay, A549 2D; type: cell-based; details: 72 h, median of five assays
Excerpt: as §1, §2

U2OS = assay: Cytotoxic MTS assay, U2OS 2D; type: cell-based; details: human tumors 2D, 72 h, median of five assays
Excerpt: as §1, §2

HCT116 par spheroids = assay: Spheroid viability assay (CellTiter-Glo 3D), HCT116 parental spheroids; type: cell-based; details: 72 h, 100 pM to 50 μM
Experimental: (§3) Spheroid culture aims to analyze the drug’s effect on complex structures resembling solid tumors. The spheroids were prepared using the specific nonadherent plates for spheroid formation (Nunc Sphera, Thermo Fisher, Waltham, MA, USA) according to the simple protocol outlined by the manufacturer. The cell lines HCT116 parental, HCT116KOTp53, A549, and U2OS were cultured at a density of 2500 cells per well using medium containing 10% fetal calf serum and antibiotics: McCoy’s 5A medium for HCT116, F-12K (Kaighn’s Modified) for A549, and Dulbecco’s Modified Eagle Medium (DMEM). The cells were grown in culture for 48 h as recommended by the manufacturer and as described by Das et al. and Muñoz-Garcia et al..
(§4) The cell viability of the treated spheroids was assessed using the kit CellTiter-Glo 3D (Promega Corporation, Madison, WI, USA). The kit is designed to measure ATP as an indicator of viability, generating a luminescent readout that is more sensitive than colorimetric or fluorescence-based methods. The spheroids were cultivated with compounds at concentrations ranging from 100 pM to 50 μM in triplicate for 72 h, and the luminescence was measured using the Enspire apparatus (PerkinElmer). A standard curve was performed for each analysis as recommended by the manufacturer.

HCT116KO53 spheroids = assay: Spheroid viability assay (CellTiter-Glo 3D), HCT116 p53 KO spheroids; type: cell-based; details: 72 h, 100 pM to 50 μM
Experimental: as §3, §4

A549 spheroids = assay: Spheroid viability assay (CellTiter-Glo 3D), A549 spheroids; type: cell-based; details: 72 h, 100 pM to 50 μM
Experimental: as §3, §4

U2OS spheroids = assay: Spheroid viability assay (CellTiter-Glo 3D), U2OS spheroids; type: cell-based; details: human tumors spheroids, 72 h, 100 pM to 50 μM
Experimental: as §3, §4

[1] = test system: mixed spheroids of MRC-5 fibroblasts with HCT116 or HCT116 p53 KO cells; assay: Mixed spheroid viability assay; type: cell-based, human; details: mixed spheroids of fibroblasts and tumor cells
Experimental: as §4, with “Mixed spheroids were made by mixing MRC-5 fibroblasts with HCT116 or HCT116 p53 KO cells at a ratio of 1:1 (1000 cells/well); the cells were added immediately one after the other, and the formation of spheroids was monitored for 48 hrs. The mixed spheroids of both cell types had similar morphological features. The cell” for “The cell”

caspase 8 = assay: Caspase 8 activity in lysed HCT116 cells from 2D and spheroids; type: cell-based, human; details: HCT116 parental spheroids, 25 µM (cisplatin 15 μM), 12 h
Experimental: (§5) The assay was designed to evaluate the impact of various compounds on caspase activity using a standardized quantity of cell protein lysates after 12 h of incubation. The parental line HCT116 served as the basis for these experiments. Three distinct caspases were examined employing the fluorescence assay kits from Calbiochem (San Diego, CA, USA), specifically a fluorometric caspase-8 assay kit and a fluorimetric caspase-3 assay kit. Additionally, the fluorometric kit from Abcam was utilized to assess caspase-9 activity. Due to the variations in protocols for each caspase, separate plates were prepared for each assay, encompassing both two-dimensional (2D) cell cultures and spheroids. The compound concentrations were established at 25 µM, and assays were conducted in quintuplicate following a 12-h incubation period. The cells were harvested from the plates using the standard trypsin-EDTA solution (Merck Sigma Aldrich, Saint Louis, MO, USA), washed, and counted before lysis, as described in each kit. Cell processing adhered to the guidelines provided by the respective companies, and protein concentration was calculated and standardized using the standard BCA assay. Fluorescent readings were captured using the Enspire apparatus (Perkin-Elmer, MA, USA). Positive controls utilized included staurosporine at a concentration of 5 μM and cisplatin at 15 μM. The kits provided their own standards; however, to normalize all the readings between cultures, types, and treatments, the results were expressed as a percentage relative to the positive control, staurosporine, in 2D culture. […] A total of three separate assays were conducted for each caspase.

caspase 9 = assay: Caspase 9 activity in lysed HCT116 cells from 2D and spheroids; type: cell-based, human; details: HCT116 parental spheroids, 25 µM (cisplatin 15 μM), 12 h
Experimental: as §5

caspase 3 = assay: Caspase 3 activity in lysed HCT116 cells from 2D and spheroids; type: cell-based, human; details: 12 h; for Caspase 3 activity, spheroid culture: HCT116 parental spheroids, 25 µM (cisplatin 15 μM); for Caspase 3 activity, 2D culture: HCT116 parental, 25 µM
Experimental: as §5

normal human leukocytes = test system: normal human leukocytes; design: method as in PMID 31449809, PMID 35430982; details: 0.1 nM to 50 μM in 0.01% DMSO; cited from earlier work
[2] = MRC5, doxorubicin-resistant human fibroblasts
[3] = HCT-116, human tumors spheroids

Row | IC50 (HCT116KO53 spheroids; [3]) | IC50 (A549 spheroids; A549, human tumors spheroids) | IC50 (U2OS spheroids; U2OS) | Compound | Caspase 8 activity, spheroid culture (caspase 8) | Caspase 9 activity, spheroid culture (caspase 9) | Caspase 3 activity, spheroid culture (caspase 3) | IC50 (BJ; BJ) | IC50 (BJ LD; Fibroblast) | IC50 (MRC-5; MRC5, human fibroblasts) | IC50 (MRC-5 LD; [2]) | IC50 (CCRF-CEM; CCRF-CEM) | IC50 (K562; K562, human leukemia cell line) | IC50 (RAJI; Raji) | IC50 (RAMOS; Ramos) | IC50 (HCT116 par; HCT-116, human tumors 2D) | IC50 (HCT116KO53; HCT-116, human tumors 2D) | IC50 (A549; A549, human tumors 2D) | IC50 (U2OS; U2OS) | IC50 (HCT116 par spheroids; [3]) | Caspase 3 activity, 2D culture (caspase 3) | further results
1 |  |  |  | N.N.[Cl][Pt][Cl] [Cisplatin, reference compound] | caspase activation was observed | caspase activation was observed | caspase activation was observed |  |  |  |  |  |  |  |  |  |  |  |  |  |  | IC50 (BJ): 9.5 µM; IC50 (BJ LD): 17.8 µM; IC50 (MRC-5; human fibroblasts): 3.98 µM; IC50 (MRC-5 LD; doxorubicin-resistant human fibroblasts): 23.5 µM; IC50 (CCRF-CEM): 4.62 µM; IC50 (K562; human leukemia cell line): 6.98 µM; IC50 (RAJI): 0.68 µM; IC50 (RAMOS): 0.56 µM; IC50 (HCT116 par; human tumors 2D): 12.5 µM; IC50 (HCT116KO53; human tumors 2D): 8.34 µM; IC50 (A549; human tumors 2D): 9.51 µM; IC50 (U2OS): 9.56 µM; IC50 (HCT116 par spheroids; human tumors spheroids): 15.9 µM; IC50 (HCT116KO53 spheroids; human tumors spheroids): 45.7 µM; IC50 (A549 spheroids; human tumors spheroids): 49.8 µM; IC50 (U2OS spheroids): 21.8 µM; IC50 [1]: 26.8 µM
2 | > 50 µM | > 50 µM | > 50 µM | C=C1C(=O)C23CCC(C(=C)C)C(C)(CCC(=O)O)C2CCC1C3 (stereo not shown) [Compound 1, Caracasine Acid] | absence of caspase activity | absence of caspase activity | absence of caspase activity | 6.88 µM | 7.04 µM | 6.48 µM | 6.69 µM | 0.38 µM | 4.77 µM | 0.85 µM | 0.62 µM | 1.73 µM | 1.52 µM | 5.98 µM | 1.79 µM | > 50 µM | significant changes | Effect on primary leukocytes (normal human leukocytes): no significant effect
3 | > 50 µM | > 50 µM | > 50 µM | C=C1C(=O)C23CCC(C(=C)C)C(C)(CCC(=O)OC4CCCCC4)C2CCC1C3 (stereo not shown) [Compound 3, Caracasine Acid Cyclohexyl Ester] | absence of caspase activity | absence of caspase activity | absence of caspase activity | 7.38 µM | 6.5 µM | 5.45 µM | 2.69 µM | 0.38 µM | 2.21 µM | 1.86 µM | 0.78 µM | 1.59 µM | 1.63 µM | 2.69 µM | 1.66 µM | > 50 µM | significant changes | 
